# Reference: the Deep4Chem optical property database
# Test: solvent given as SMILES
smiles,measurement,setting,value
CCCCn1c2c(-c3ccc(N(c4ccccc4)c4ccccc4)cc3)cc(C#N)cc2c2cc(C#N)cc(-c3ccc(N(c4ccccc4)c4ccccc4)cc3)c21,emission maximum,in C1CCCCC1,404 nm
same,emission maximum,in C1CCOC1,449 nm
same,emission maximum,in CC#N,476 nm
same,emission maximum,in CCCCOCCCC,419 nm
same,emission maximum,in CCN(CC)CC,415 nm
same,emission maximum,in CCOC(C)=O,443 nm
same,emission maximum,in CCOCC,430 nm
same,emission maximum,in CN(C)C=O,476 nm
same,emission maximum,in Cc1ccccc1,415 nm
same,emission maximum,in ClC=C(Cl)Cl,424 nm
same,emission maximum,in ClCCl,452 nm
O=C1O[B-]2(OC1=O)OC(c1ccc3ccccc3c1)=CC(c1ccc3ccccc3c1)=[O+]2,emission maximum,in CC#N,550 nm
same,emission maximum,in ClC(Cl)(Cl)Cl,451 nm
CCC(C)(C)c1ccc(-c2ccc(-c3ccc(C(C)(C)CC)cc3)cc2)cc1,emission maximum,in C1COCCO1,354 nm
CCC(CC)COC1=CC2=C3c4cc(OCC(CC)CC)c(-c5ccccc5)n4[B-](F)(F)[n+]4nnn(c43)[B-](F)(F)[N+]2=C1c1ccccc1,emission maximum,in C1CCOC1,725 nm
same,emission maximum,in CC#N,721 nm
same,emission maximum,in ClCCl,730 nm
CC(C)(C)c1ccc(-c2ccc(-c3ccc(C(C)(C)C)cc3)c3nsnc23)cc1,emission maximum,in ClCCl,512 nm
Cc1ccc(-n2c3ccc(-c4ccc(-c5nc6ccccc6n5-c5ccccc5)cc4)cc3c3cc(-c4ccc(-c5nc6ccccc6n5-c5ccccc5)cc4)ccc32)cc1,emission maximum,in ClC(Cl)Cl,410 nm
CCCCn1cc(/C=C/c2cc(=O)oc3cc(C)ccc23)c2ccccc21,emission maximum,in CS(C)=O,532 nm
same,emission maximum,in ClC(Cl)Cl,474 nm
c1ccc2c(c1)OP1(=NP(Oc3ccc4ccc5cccc6ccc3c4c56)(Oc3ccc4ccc5cccc6ccc3c4c56)=NP(Oc3ccc4ccc5cccc6ccc3c4c56)(Oc3ccc4ccc5cccc6ccc3c4c56)=N1)Oc1ccccc1-2,emission maximum,in ClCCl,457 nm
COc1ccc(N(c2ccc(OC)cc2)c2ccc(-c3ccc4c(c3)C(=O)c3ccccc3C4=O)cc2)cc1,emission maximum,in CCCCCC,571 nm
same,emission maximum,in CCOCC,720 nm
same,emission maximum,in Cc1ccccc1,679 nm
same,emission maximum,in ClC(Cl)(Cl)Cl,646 nm
O=C1C=Cc2cc3ccccc3c(=O)n21,emission maximum,in CC#N,410 nm
same,emission maximum,in CO,450 nm
same,emission maximum,in CS(C)=O,420 nm
same,emission maximum,in ClC(Cl)Cl,410 nm
CC(C)(C)c1cccc2c([O-])cccc12,emission maximum,in O,443 nm
Cc1ccccc1N1c2sc3ccccc3c2Sc2sc3ccccc3c21,emission maximum,in ClCCl,564 nm
c1ccc2c(-c3ccc(-c4nnc(-c5ccc(-c6nnc(-c7ccc(-c8cccc9ccccc89)s7)o6)cc5)o4)s3)cccc2c1,emission maximum,in C1COCCO1,434 nm
same,emission maximum,in CC#N,458 nm
same,emission maximum,in CC(=O)N(C)C,462 nm
same,emission maximum,in CCCCCCCCCCO,440 nm
same,emission maximum,in CCCCCCCCO,442 nm
same,emission maximum,in CCCCCCO,445 nm
same,emission maximum,in CCCCO,451 nm
same,emission maximum,in CCO,459 nm
same,emission maximum,in CS(C)=O,468 nm
same,emission maximum,in Cc1ccccc1,434 nm
same,emission maximum,in ClC(Cl)Cl,410 nm
O=C1c2ccccc2C(=O)C1C1C(=O)c2c3ccccc3cc3cc4ccccc4c1c23 (centres undefined),emission maximum,in C1CCOC1,569 nm
same,emission maximum,in CC#N,591 nm
same,emission maximum,in CCCCCC,538 nm
same,emission maximum,in Cc1ccccc1,563 nm
same,emission maximum,in ClCCl,583 nm
Cc1ccc(N(CC(=O)[O-])CC(=O)[O-])c(OCCOc2cc3cc(-c4ncc(C(=O)[O-])o4)oc3cc2N(CC(=O)[O-])CC(=O)[O-])c1,emission maximum,in O,500 nm
N#CSC1=CC2=C(c3ccccc3)c3ccc(N4CCOCC4)n3[B-](F)(F)[N+]2=C1N1CCOCC1,emission maximum,in CC#N,605 nm
same,emission maximum,in CCCCCC,599 nm
same,emission maximum,in CCOC(C)=O,604 nm
same,emission maximum,in CO,599 nm
same,emission maximum,in ClCCl,603 nm
CC(C)(C)c1ccc2c(c1)c1cc(C(C)(C)C)cc3c1n2-c1cc(-c2ccccc2F)cc2c1B3c1cc(C(C)(C)C)cc3c4cc(C(C)(C)C)ccc4n-2c13,emission maximum,in Cc1ccccc1,499.76 nm
CC1(C)C(=O)C=Cc2ccc(N)cc21,emission maximum,in O,526 nm
CC(C)(C)c1ccc2c(c1)c1cc3c4cc(C(C)(C)C)ccc4c4c5c6ccc(C(C)(C)C)cc6c6cc7c8cc(C(C)(C)C)ccc8c8c2c1c(c34)c(c78)c65,emission maximum,in CCCCCC,679.35 nm
same,emission maximum,in CCOCC,679.9 nm
same,emission maximum,in Cc1ccccc1,685.4 nm
